# Reference: patent US20230321012A1 (priority 2021, published 2023)
# “Also recorded” adds a separate entry of the source.
# How the values were obtained:
# [1] = Water solubility, bioavailability and Biopharmaceutics Classification System class; assay type: physicochemical; settings: oral
# Excerpt: Interim data for the pharmacokinetic (PK) behavior of both agents in human subjects has been generated.
# [2] = Clinical safety and tolerability, dose-limiting toxicities (NCT03536728); assay type: in vivo
# Excerpt: Clinical Trial Outline. […] All solid tumor types are eligible for the trial. […] DFMO was delivered orally twice daily in gel capsules.
# These DLTs involved vomiting, diarrhea and nausea, and inferred a potential dual drug targeting of the gastrointestinal (GI) tract in these patients. One patient experienced severe dehydration, requiring hospitalization. A similar observation was made in dogs in Aminex's 28-day toxicological testing. […] The clinical observations and the data obtained in dog studies, together, support the hypothesis that combined oral drug dosing levels and DFMO targeting of the GI tract are causing the intolerance.
# In cohorts before Part 2, Cohort 4, 14 adults were treated at 1,200 mg or higher of AMXT 1501 daily, either once daily or BID, with no DLTs. A total of 18 patients were treated at 800 mg AMXT 1501 or higher daily with no DLTs. These patients included a couple of adult patients where Cmax values above 1,000 ng/mL AMXT 1501 plasma levels were observed, again with no DLTs observed.
smiles,measurement,setting,value
CCCCCCCCCCCCCCCC(=O)NCCCC[C@@H](N)C(=O)NCCCNCCCCNCCCN [AMXT 1501 dicaprate],bioavailability,[1],low bioavailability
same,clinical tolerability,"[2]; oral 1,200 mg AMXT 1501 dicaprate alone, once daily or split BID",well tolerated clinically; also recorded: well-tolerated clinically
same,GI adverse effects on changing from once daily to twice daily (BID) delivery,"[2]; patients, similar dose levels",greatly reduced; also recorded: substantially minimized
